Species on record: Rattus norvegicus
Assay: Open TG-GATES - Regimen: Single
Format: toxicity, organism-based, Sprague-Dawley
Set-up: regimen Single, gender Male, age 6 weeks
Details: in vivo, po, route gavage; for KIDNEY_L / KIDNEY_R / KIDNEY_TOTAL: tissue Kidney; for LIVER: tissue Liver; for ALP / ALT / AST / BUN / CRE / DBIL / GLC / IP / K / PL / RALB / TBIL / TC / TG / TP / gamma-GTP: tissue Plasma
[1] = 100 mg/kg, 3 h, tissue Blood, dose level Middle
[2] = 100 mg/kg, 3 h, dose level Middle
[3] = 100 mg/kg, 6 h, tissue Blood, dose level Middle
[4] = 100 mg/kg, 6 h, dose level Middle
[5] = 100 mg/kg, 9 h, tissue Blood, dose level Middle
[6] = 100 mg/kg, 9 h, dose level Middle
[7] = 100 mg/kg, 24 h, tissue Blood, dose level Middle
[8] = 100 mg/kg, 24 h, dose level Middle
[9] = 1000 mg/kg, 3 h, tissue Blood, dose level High
[10] = 1000 mg/kg, 3 h, dose level High
[11] = 1000 mg/kg, 6 h, tissue Blood, dose level High
[12] = 1000 mg/kg, 6 h, dose level High
[13] = 1000 mg/kg, 9 h, tissue Blood, dose level High
[14] = 1000 mg/kg, 9 h, dose level High
[15] = 1000 mg/kg, 24 h, tissue Blood, dose level High
[16] = 1000 mg/kg, 24 h, dose level High

CC(C)OC(=O)C(C)(C)Oc1ccc(C(=O)c2ccc(Cl)cc2)cc1 [FENOFIBRATE]
Bas [1]: 0.2%
Eos [1]: 1%
Fbg [1]: 289.2 mg/dL
Ht [1]: 41%
MCHC [1]: 32.3%
Mono [1]: 3%
RBC [1]: 610 x10_4/ul
Ret [1]: 9.8%
KIDNEY_L [2]: 0.8 g
KIDNEY_R [2]: 0.8 g
KIDNEY_TOTAL [2]: 1.6 g
LIVER [2]: 8.2 g
ALP [2]: 1478.6 IU/L
ALT [2]: 46.6 IU/L
AST [2]: 79 IU/L
BUN [2]: 9.8 mg/dL
CRE [2]: 0.2 mg/dL
DBIL [2]: 0.012 mg/dL
GLC [2]: 181.2 mg/dL
IP [2]: 10.1 mg/dL
K [2]: 4.3 meq/L
PL [2]: 145.8 mg/dL
RALB [2]: 2.6 g/dL
TBIL [2]: 0.052 mg/dL
TC [2]: 79.6 mg/dL
TG [2]: 46.4 mg/dL
TP [2]: 5.4 g/dL
gamma-GTP [2]: 1.4 IU/L
Bas [3]: 0.2%
Eos [3]: 0.4%
Fbg [3]: 261.4 mg/dL
Ht [3]: 39.8%
MCHC [3]: 32.3%
Mono [3]: 2.8%
RBC [3]: 591.2 x10_4/ul
Ret [3]: 10.3%
KIDNEY_L [4]: 0.8 g
KIDNEY_R [4]: 0.8 g
KIDNEY_TOTAL [4]: 1.6 g
LIVER [4]: 7.5 g
ALT [4]: 51.2 IU/L
AST [4]: 85.8 IU/L
BUN [4]: 8.4 mg/dL
CRE [4]: 0.2 mg/dL
DBIL [4]: 0.01 mg/dL
GLC [4]: 173 mg/dL
IP [4]: 9.8 mg/dL
K [4]: 4.2 meq/L
PL [4]: 130.8 mg/dL
RALB [4]: 2.5 g/dL
TBIL [4]: 0.054 mg/dL
TC [4]: 69.6 mg/dL
TG [4]: 37.2 mg/dL
TP [4]: 5.2 g/dL
gamma-GTP [4]: 1 IU/L
Bas [5]: 0%
Eos [5]: 1%
Fbg [5]: 292.2 mg/dL
Ht [5]: 39.2%
Lym [5]: 69.2%
MCHC [5]: 32.7%
Mono [5]: 2.6%
RBC [5]: 604 x10_4/ul
Ret [5]: 10.3%
KIDNEY_L [6]: 0.8 g
KIDNEY_R [6]: 0.8 g
KIDNEY_TOTAL [6]: 1.6 g
LIVER [6]: 7 g
ALP [6]: 1457.4 IU/L
ALT [6]: 45 IU/L
AST [6]: 83.2 IU/L
BUN [6]: 6.8 mg/dL
CRE [6]: 0.2 mg/dL
DBIL [6]: 0.008 mg/dL
GLC [6]: 159.8 mg/dL
IP [6]: 9.6 mg/dL
K [6]: 3.9 meq/L
PL [6]: 125 mg/dL
RALB [6]: 2.4 g/dL
TBIL [6]: 0.054 mg/dL
TC [6]: 70.8 mg/dL
TG [6]: 29.2 mg/dL
TP [6]: 5.3 g/dL
gamma-GTP [6]: 1 IU/L
Bas [7]: 0.2%
Eos [7]: 0.8%
Fbg [7]: 259.6 mg/dL
Ht [7]: 38.8%
MCHC [7]: 32.8%
Mono [7]: 3.2%
RBC [7]: 582.4 x10_4/ul
Ret [7]: 8.5%
KIDNEY_L [8]: 0.8 g
KIDNEY_R [8]: 0.8 g
KIDNEY_TOTAL [8]: 1.7 g
LIVER [8]: 9.8 g
ALP [8]: 1873.8 IU/L
ALT [8]: 46.4 IU/L
AST [8]: 74.4 IU/L
BUN [8]: 13 mg/dL
CRE [8]: 0.2 mg/dL
DBIL [8]: 0.012 mg/dL
GLC [8]: 187.8 mg/dL
IP [8]: 8.9 mg/dL
K [8]: 4.4 meq/L
PL [8]: 122.6 mg/dL
RALB [8]: 2.5 g/dL
TBIL [8]: 0.04 mg/dL
TC [8]: 68.6 mg/dL
TG [8]: 36.4 mg/dL
TP [8]: 5.3 g/dL
gamma-GTP [8]: 1 IU/L
Bas [9]: 0.2%
Eos [9]: 0.6%
Fbg [9]: 271.2 mg/dL
Ht [9]: 40.6%
MCHC [9]: 32.5%
Mono [9]: 3.4%
RBC [9]: 616.6 x10_4/ul
Ret [9]: 10.6%
KIDNEY_L [10]: 0.8 g
KIDNEY_R [10]: 0.8 g
KIDNEY_TOTAL [10]: 1.6 g
LIVER [10]: 7.4 g
ALT [10]: 43.2 IU/L
AST [10]: 76.6 IU/L
BUN [10]: 8.2 mg/dL
CRE [10]: 0.2 mg/dL
DBIL [10]: 0.018 mg/dL
GLC [10]: 173.6 mg/dL
IP [10]: 9.3 mg/dL
K [10]: 4.3 meq/L
PL [10]: 123.2 mg/dL
RALB [10]: 2.5 g/dL
TBIL [10]: 0.062 mg/dL
TC [10]: 64.8 mg/dL
TG [10]: 28 mg/dL
TP [10]: 5.3 g/dL
gamma-GTP [10]: 1.6 IU/L
Bas [11]: 0%
Eos [11]: 0.6%
Fbg [11]: 253.6 mg/dL
Ht [11]: 39.6%
MCHC [11]: 32.5%
Mono [11]: 2.4%
RBC [11]: 609.8 x10_4/ul
Ret [11]: 10%
KIDNEY_L [12]: 0.8 g
KIDNEY_R [12]: 0.8 g
KIDNEY_TOTAL [12]: 1.6 g
LIVER [12]: 7.4 g
ALP [12]: 1256 IU/L
ALT [12]: 43.4 IU/L
AST [12]: 75.4 IU/L
BUN [12]: 7 mg/dL
CRE [12]: 0.2 mg/dL
DBIL [12]: 0.02 mg/dL
GLC [12]: 170.4 mg/dL
IP [12]: 9 mg/dL
K [12]: 4.2 meq/L
PL [12]: 116.8 mg/dL
RALB [12]: 2.5 g/dL
TBIL [12]: 0.058 mg/dL
TC [12]: 60 mg/dL
TG [12]: 28.6 mg/dL
TP [12]: 5.2 g/dL
gamma-GTP [12]: 1.2 IU/L
Bas [13]: 0%
Eos [13]: 0.6%
Fbg [13]: 283.6 mg/dL
Ht [13]: 39.8%
MCHC [13]: 32.3%
Mono [13]: 1.8%
RBC [13]: 609.2 x10_4/ul
Ret [13]: 8.8%
KIDNEY_L [14]: 0.8 g
KIDNEY_R [14]: 0.8 g
KIDNEY_TOTAL [14]: 1.6 g
LIVER [14]: 6.9 g
ALP [14]: 1470.4 IU/L
ALT [14]: 48.4 IU/L
AST [14]: 90.4 IU/L
BUN [14]: 8 mg/dL
CRE [14]: 0.2 mg/dL
DBIL [14]: 0.014 mg/dL
GLC [14]: 152.2 mg/dL
IP [14]: 8.5 mg/dL
K [14]: 3.8 meq/L
PL [14]: 119 mg/dL
RALB [14]: 2.5 g/dL
TBIL [14]: 0.048 mg/dL
TC [14]: 62.4 mg/dL
TG [14]: 32.2 mg/dL
TP [14]: 5.3 g/dL
gamma-GTP [14]: 1 IU/L
Bas [15]: 0%
Eos [15]: 1%
Fbg [15]: 259 mg/dL
Ht [15]: 39.4%
MCHC [15]: 32.5%
Mono [15]: 3.6%
RBC [15]: 603.8 x10_4/ul
Ret [15]: 9.1%
KIDNEY_L [16]: 0.8 g
KIDNEY_R [16]: 0.8 g
KIDNEY_TOTAL [16]: 1.7 g
LIVER [16]: 9.6 g
ALT [16]: 53 IU/L
AST [16]: 84.4 IU/L
BUN [16]: 13.6 mg/dL
CRE [16]: 0.2 mg/dL
DBIL [16]: 0.014 mg/dL
GLC [16]: 172.2 mg/dL
IP [16]: 8.7 mg/dL
K [16]: 4.3 meq/L
PL [16]: 112.4 mg/dL
RALB [16]: 2.5 g/dL
TBIL [16]: 0.048 mg/dL
TC [16]: 57.2 mg/dL
TG [16]: 31.6 mg/dL
TP [16]: 5.3 g/dL
gamma-GTP [16]: 1 IU/L

— ChEMBL document CHEMBL3885861, “Open TG-GATES”
